Results from ChEMBL document CHEMBL1130810, “Potent, selective benzenesulfonamide agonists of the human beta 3 adrenergic receptor” (Bioorg Med Chem Lett, 1998).
pEC50, pIC50: −log10 of the molar value.

Key:
[1] = target: Beta-3 adrenergic receptor (Homo sapiens, UniProt P13945); assay: Agonist activity against cloned human beta-3 adrenergic receptor; type: functional
[2] = target: T1, Beta-2 adrenergic receptor (Homo sapiens, UniProt P07550); assay: biochemical
Target sequence in this assay (P07550 whole entry): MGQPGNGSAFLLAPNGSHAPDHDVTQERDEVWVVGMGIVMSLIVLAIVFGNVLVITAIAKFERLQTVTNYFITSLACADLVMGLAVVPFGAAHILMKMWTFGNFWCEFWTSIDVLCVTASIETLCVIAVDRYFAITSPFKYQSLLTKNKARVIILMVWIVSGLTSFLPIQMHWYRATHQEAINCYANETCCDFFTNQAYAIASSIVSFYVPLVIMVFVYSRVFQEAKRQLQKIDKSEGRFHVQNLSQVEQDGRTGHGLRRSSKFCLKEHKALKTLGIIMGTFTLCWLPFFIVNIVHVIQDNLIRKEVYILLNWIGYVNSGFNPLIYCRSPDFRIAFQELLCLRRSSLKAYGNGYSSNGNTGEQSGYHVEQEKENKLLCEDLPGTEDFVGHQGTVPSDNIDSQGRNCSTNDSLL
Description: Binding affinity against cloned human beta-2 adrenergic receptor from CHO cells using [125I]iodocyanopindolol as the radioligand

[3] = target: T2, Beta-1 adrenergic receptor (Homo sapiens, UniProt P08588); assay: biochemical
T2 sequence (P08588 whole entry): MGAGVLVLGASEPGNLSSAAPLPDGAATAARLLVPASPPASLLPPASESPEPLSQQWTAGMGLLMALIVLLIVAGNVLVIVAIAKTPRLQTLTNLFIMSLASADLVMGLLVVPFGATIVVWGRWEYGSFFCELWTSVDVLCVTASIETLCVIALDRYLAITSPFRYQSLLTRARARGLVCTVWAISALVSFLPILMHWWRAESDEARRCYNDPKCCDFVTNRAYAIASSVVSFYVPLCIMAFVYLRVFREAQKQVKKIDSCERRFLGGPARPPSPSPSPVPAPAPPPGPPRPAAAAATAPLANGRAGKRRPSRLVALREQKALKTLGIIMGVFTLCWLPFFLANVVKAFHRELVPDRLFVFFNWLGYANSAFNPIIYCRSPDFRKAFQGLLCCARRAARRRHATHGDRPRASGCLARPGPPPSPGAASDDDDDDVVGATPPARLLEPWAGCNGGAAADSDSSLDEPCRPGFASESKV

[4] = target: T2, Beta-1 adrenergic receptor; assay: (§1) Compound was tested for agonist activity against cloned human beta-1 adrenergic receptor; type: functional
[5] = target: T1, Beta-2 adrenergic receptor; assay: Agonist activity against cloned human beta-2 adrenergic receptor as percent activation of adenyl cyclase activity at a concentration of 1000 nM; type: functional
Target sequence in this assay (P07550 whole entry, looked up): as the sequence (P07550 whole entry) above

[6] = target: T2, Beta-1 adrenergic receptor; assay: Tested for binding affinity against cloned human beta-1 adrenergic receptor from CHO cells using [125I]iodocyanopindolol as the radioligand.; type: cell-based
[7] = target: T1, Beta-2 adrenergic receptor; assay: Compound was tested for agonist activity against cloned human beta-2 adrenergic receptor; type: functional
Target sequence in this assay (P07550 whole entry): as above

[8] = target: T2, Beta-1 adrenergic receptor; assay: as §1
[9] = target: T1, Beta-2 adrenergic receptor; assay: Compound was tested for agonist activity against cloned human beta-2 adrenergic receptor at a concentration of 1000 nM; type: functional
Target sequence in this assay (P07550 whole entry, looked up): as the sequence (P07550 whole entry) above

[10] = target: T2, Beta-1 adrenergic receptor; assay: Compound was tested for binding affinity against cloned human beta-1 adrenergic receptor from CHO cells using [125I]-iodocyanopindolol as radioligand; type: cell-based

Chain of Beta-3 adrenergic receptor (P13945 whole entry): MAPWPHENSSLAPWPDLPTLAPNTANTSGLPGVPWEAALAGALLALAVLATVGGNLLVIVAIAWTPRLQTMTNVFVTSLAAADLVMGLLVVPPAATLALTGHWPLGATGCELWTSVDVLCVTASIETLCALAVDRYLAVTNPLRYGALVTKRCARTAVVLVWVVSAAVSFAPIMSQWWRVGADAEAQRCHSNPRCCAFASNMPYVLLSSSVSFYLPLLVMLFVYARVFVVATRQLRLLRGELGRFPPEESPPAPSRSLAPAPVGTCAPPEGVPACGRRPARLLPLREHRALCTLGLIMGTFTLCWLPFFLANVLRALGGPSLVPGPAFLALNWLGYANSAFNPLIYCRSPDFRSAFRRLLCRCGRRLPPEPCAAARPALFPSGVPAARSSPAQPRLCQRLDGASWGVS

SMILES	pEC50 [1]	pIC50 [2]	pIC50 [3]	also measured
O=S(=O)(CCCc1ccccc1)Nc1ccc(CCNC[C@H](O)COc2ccc(O)cc2)cc1	7.04	6.89	6.00	–
O=S(=O)(Nc1ccc(CCNC[C@H](O)COc2ccc(O)cc2)cc1)C1CCCCC1	5.82	5.52	5.70	pEC50 [4]: 5.92
O=S(=O)(Nc1ccc(CCNC[C@H](O)COc2ccc(O)cc2)cc1)c1ccccc1Cl	7.27	7.00	6.21	Activity [5]: 2%
Cc1ccc(S(=O)(=O)Nc2ccc(CCNC[C@H](O)COc3ccc(O)cc3)cc2)cc1	8.59	6.77	–	pIC50 [6]: 6.82
CC(=O)Nc1ccc(CCNC[C@H](O)COc2ccc(O)cc2)cc1	7.57	7.96	7.60	–
COc1ccc(CCCNC[C@H](O)COc2ccc(O)cc2)cc1	6.22	7.20	–	pIC50 [4]: 7.82
O=S(=O)(Nc1ccc(CCNC[C@H](O)COc2ccc(O)cc2)cc1)c1ccc(Cl)c(Cl)c1	7.24	5.52	< 5.00	–
COc1ccc(CC[C@@H](C)NC[C@@H](O)COc2ccc(O)cc2)cc1	5.22	–	–	pEC50 [7]: 7.52
CC(C)S(=O)(=O)Nc1ccc(CCNC[C@H](O)COc2ccc(O)cc2)cc1	7.60	7.24	7.00	–
O=S(=O)(Cc1ccccc1)Nc1ccc(CCNC[C@H](O)COc2ccc(O)cc2)cc1	7.41	7.68	7.22	–
O=S(=O)(Nc1ccc(CCNC[C@H](O)COc2ccc(O)cc2)cc1)c1cnc2ccccc2c1	–	6.62	–	pEC50 [8]: 6.52; pIC50 [6]: 6.30
O=C(Nc1ccc(CCNC[C@H](O)COc2ccc(O)cc2)cc1)c1ccccc1	7.21	6.64	8.17	–
Nc1ccc(CCNC[C@H](O)COc2ccc(O)cc2)cc1	6.36	6.30	6.00	–
COc1ccc(S(=O)(=O)Nc2ccc(CCNC[C@H](O)COc3ccc(O)cc3)cc2)cc1	8.37	6.72	–	pIC50 [6]: 6.85
Oc1ccc(CCNC[C@H](O)COc2ccc(O)cc2)cc1	7.52	6.82	6.05	–
O=S(=O)(CCc1ccccc1)Nc1ccc(CCNC[C@H](O)COc2ccc(O)cc2)cc1	8.23	6.92	6.96	–
O=S(=O)(Nc1ccc(CCNC[C@H](O)COc2ccc(O)cc2)cc1)c1ccc(Br)cc1	9.11	6.74	6.29	pEC50 [4]: 6.47
O=S(=O)(Nc1ccc(CCNC[C@H](O)COc2ccc(O)cc2)cc1)c1ccccc1	8.20	6.72	6.74	–
COc1ccc(CC[C@@H](C)NC[C@H](O)COc2ccc(O)cc2)cc1	6.22	–	–	pEC50 [7]: 8.30
C[C@@H](Cc1ccc(O)cc1)NC[C@H](O)COc1ccc(O)cc1	7.60	7.08	7.09	–
CCCCCS(=O)(=O)Nc1ccc(CCNC[C@H](O)COc2ccc(O)cc2)cc1	5.40	6.60	6.00	–
CCCS(=O)(=O)Nc1ccc(CCNC[C@H](O)COc2ccc(O)cc2)cc1	7.22	6.30	6.00	Max stimulation [9]: 4%
COc1ccc(CC[C@H](C)NC[C@@H](O)COc2ccc(O)cc2)cc1	5.70	–	–	–
O=S(=O)(Nc1ccc(CCNC[C@H](O)COc2ccc(O)cc2)cc1)c1ccc2ccccc2c1	8.27	6.20	–	pIC50 [6]: 5.05
C[C@@H](CCc1ccc(O)cc1)NC[C@H](O)COc1ccc(O)cc1	7.92	8.00	7.82	–
O=S(=O)(Nc1ccc(CCNC[C@H](O)COc2ccc(O)cc2)cc1)c1cccc(Cl)c1	7.82	6.43	–	pIC50 [6]: 6.00
COc1ccc(C[C@H](C)NC[C@H](O)COc2ccc(O)cc2)cc1	6.00	–	–	–
O=S(=O)(Nc1ccc(CCNC[C@H](O)COc2ccc(O)cc2)cc1)c1ccc(Cl)cc1	8.32	6.55	–	pEC50 [4]: 6.35; pIC50 [6]: 6.00
CS(=O)(=O)Nc1ccc(CCNC[C@H](O)COc2ccc(O)cc2)cc1	6.96	6.66	6.08	–
COc1ccc(CC[C@H](C)NC[C@H](O)COc2ccc(O)cc2)cc1	6.70	7.70	–	pIC50 [10]: 8.00
